Data on 15 compounds can be found in patent publication US4075206A, “Substituted pyrroloquinoxalinones and diones” (Eli Lilly and Company, priority 1977, dated 1978).

Assay [1] has as its system erythema produced by an ultra-violet light source on guinea pig skin. Briefly: Anti-inflammatory: block of UV-light-induced erythema on guinea pig skin (method of Windner et al.). It counts as in vivo, albino guinea pigs. Particulars: oral; for ED50: Cavia porcellus, dose producing 50 percent inhibition of the erythemic response, groups of four guinea pigs; for Inhibition at 50 mg/kg dose: percent inhibition of erythema at 50 mg/kg where an ED50 was not determined. The method, then:
The compounds of this invention are anti-inflammatory and anti-thrombotic agents. […] Int. Pharmacodyn, 116, 261 (1958). In this procedure, albino quinea pigs weighing 225- 300 gms. are shaved on the back and chemically depilated 18 to 20 hours before initiation of the test procedures. Animals in groups of 4 are given predetermined dosages of the drug under test with one group being maintained as a control group. The drug is administered by the oral route as a suspension in 1 percent aqueous sodium carboxymethylcellulose. The control animals receive only the suspending median. After having being given the drug or suspension medium only, each group of animals is exposed to a high-intensity ultra-violet light for a predetermined period of time, the ultra-violet light being placed in contact with the depilated skin area on the animals' back. A gummed paper reinforcement is affixed to the lamp lens to provide an unexposed area of contrast for grading the light-produced erythema.
Beginning one hour after exposure and thereafter at half-hour intervals for another 1.5 hours, a trained observer grades erythema using an arbitraty scoring system based upon the degree of contrast and redness formed. […] The following scoring system is used: […]
______________________________________
Score Appearance of Exposed Area
0 No redness and no contrast
1 Slight redness with a faint
2 Slight to moderate redness
with a distinct outline
3 Marked redness with a distinct
Total scores from each treatment group of four guinea pigs are compared to the control treatment, and the percent inhibition calculated as follows: [formula]
If desired, a dose-response graph can be obtained by plotting dose versus percent inhibition, each point representing the average of one treatment group of four guinea pigs. The dose (ED50) in mg/kg cm.^2) which produced a 50 percent inhibition of the erythemic response for the particular compound tested can then be obtained, either directly or by extrapolation. Table I below summarizes the results obtained from testing representative compounds of the invention by the foregoing method.

Assay [2] concerns collagen-induced platelet aggregation. Briefly: Platelet aggregation test: collagen-induced platelet aggregation after oral dosing (method of Hermann et al.). It counts as in vivo, guinea pigs. Particulars: Cavia porcellus, 1 h, 2 doses, time zero and 2 hours later, blood 60 minutes after last dose, active = about 50% inhibition of collagen-induced aggregation, N.A. = not active at 100 mg/kg × 2, read-out: P.A. (lowest active dose in the platelet aggregation test). The procedure:
Certain of the compounds of this invention are also platelet aggregation inhibitors and the results of testing for this activity are also included in Table I. The platelet aggregation test used involves the effect of a drug upon collagen-induced platelet aggregation using the method of Hermann et al., Proc. Soc. Exp. Biol. Med. 136, 548 (1972). According to this procedure, 300- 400 g. guinea pigs are used and the compound is administered by the oral route in 2 doses, at time zero and again 2 hours later, at a series of graded dose levels to groups of 4 pigs each. One group is maintained as a control group. Blood is removed by heart puncture 60 minutes after the last dose, and a platelet-rich plasma prepared therefrom. A stock collagen solution is prepared by solubilizing bovine Achilles tendon with acetic acid. The stock solution contains 0.25 percent collagen, has a pH of 2.8 and is kept under refrigeration. Prior to use, 0.4 ml. of 1M aqueous sodium hydroxide is added to a 1 ml. aliquot of the stock solution, followed by further dilutions with saline (1:2 1:4, 1:8, 1:16, 1:32, etc.) A standard collagen challenge was used, 0.05 ml. of 1:45 dilution, to induce platelet aggregation and the aggregation response of the drugged guinea pigs was compared to that of the controls to determine inhibition of aggregation. The lowest active dose in mg./kg. × 2 is then determined, "active" being defined as giving about 50% inhibition of collagen-induced aggregation. (Activity was determined by computor printout with significance at the 95 percent confidence level being attained at about the 50 percent inhibition level). In Table 1, column 1 gives the name of the compound, column 2, the ED50 calculated as set forth above and column 3, the percent inhibition at a 50 mg/kg dose level where an ED50 was not determined and column 4, the lowest active dose in the platelet aggregation test. N. A. indicates "not active" at 100 mg/kg × 2 in this latter test.

Usually ED50 stands for the dose at which the effect has come halfway, by size or by number of responders. A high value points to weaker potency. As for `CCN1C(=O)CN2C(=O)C(c3ccccc3)c3cccc1c32` (centres unmarked) [1-Ethyl-6-phenyl-1H-pyrrolo[1,2,3-de]quinoxalin-2,5(3H,6H)-dione], it took a dose of 33 mg/kg to reach the 50% effect level in assay [1] (ED50). For the same compound, in assay [2], the minimal effective dose was determined as 100 mg/kg.

Consider `CN1C(=O)CN2C(=O)C(c3ccccc3)c3cccc1c32` (centres unmarked) [1-Methyl-6-phenyl-1H-pyrrolo 1,2,3-de]quinoxalin-2,5(3H,6H)-dione], for which it took a dose of 4.4 mg/kg to reach the 50% effect level in assay [1] (ED50). Moreover, the minimal effective dose in assay [2] stood at 3.12 mg/kg.

`CCCN1C(=O)CN2C(=O)C(c3ccccc3)c3cccc1c32` (centres unmarked) [1-n-Propyl-6-phenyl-1H-pyrrolo[1,2,3-de]quinoxalin-2,5(3H,6H)-dione] yielded a median effective dose (ED50) in assay [1] of 47.5 mg/kg.

With `O=C1C(c2ccccc2)c2cccc3c2N1CCN3` (centres unmarked) [2,3-dihydro-6-phenyl-1H-pyrrolo[1,2,3-de]quinoxalin-5(6H)-one], in assay [1], the ED50 worked out at 7.9 mg/kg. The minimal effective dose in assay [2] was found to be 100 mg/kg.

`O=C1CCN2C(=O)C(c3ccccc3)c3cccc(c32)N1` (centres unmarked) [3,4-DIHYDRO-7-PHENYL-1H-PYRROLO[ 1,2,3-ef]-BENZO-[ f]DIAZEPINE-2,6(1H,7H)-DIONE]: the 50% effect level in assay [1] (ED50) was put at a dose of 12 mg/kg. Besides, in assay [2], the minimal effective dose was determined as 50 mg/kg.

Regarding `O=C1CN2C(=O)C(c3ccccc3)(c3ccccc3)c3cccc(c32)N1` [6,6-diphenyl-1H-pyrrolo-[1,2,3-de]quinoxalin-2,5 (3H,6H)-dione], the ED50 in assay [1] came to 36 mg/kg.

A word on the Inhibition: it is how much of the control response was suppressed. Low values mean little suppression, high ones strong suppression. For the compound `O=C1CN2C(=O)C(c3ccc(Cl)cc3)c3cccc(c32)N1` (centres unmarked) [6-(4-chlorophenyl)-1H-pyrrolo[1,2,3-de]-quinoxalin-2,5(3H,6H)-dione], the “Inhibition at 50 mg/kg dose” value in assay [1] turned out to be 48%.

In turn, `O=C1CN2C(=O)C(c3ccc(F)cc3)c3cccc(c32)N1` (centres unmarked) [6-(p-fluoro)phenyl-1H-pyrrolo[1,2,3-de]quinoxalin-2,5 (3H,6H)-dione] yielded an ED50 in assay [1] of 7.7 mg/kg. Further, in assay [2], the minimal effective dose was found to be 12.5 mg/kg.

Regarding `O=C1CN2C(=O)C(c3ccccc3)c3c2c(cc2ccccc32)N1` (centres unmarked) [6-phenyl-1H-benzo[g]pyrrolo[1,2,3-de]quinoxalin-2,5(3H,6H)-dione], the “Inhibition at 50 mg/kg dose” value in assay [1] stood at 42%.

In assay [1], `O=C1CN2C(=O)C(c3ccccc3)c3cccc(c32)N1` (centres unmarked) [6-phenyl-1H-pyrrolo[1,2,3-de]quinoxalin-2,5(3H,6H)-dione] displayed an ED50 of 0.9 mg/kg. In addition, the minimal effective dose in assay [2] stood at 1.56 mg/kg.

With `CCC1C(=O)Nc2cccc3c2N1C(=O)C3c1ccccc1` (centres unmarked) [6-phenyl-3-ethyl-1H-pyrrolo[1,2,3-de]quinoxalin-2,5(3H,6H)-dione], in assay [1], it took a dose of 1 mg/kg to reach the 50% effect level (ED50). Moreover, the minimal effective dose in assay [2] turned out to be 50 mg/kg.

In assay [1], `CC1C(=O)Nc2cccc3c2N1C(=O)C3c1ccccc1` (centres unmarked) [6-phenyl-3-methyl-1H-pyrrolo 1,2,3-de]quinoxalin-2,5(3H,6H)-dione] displayed an ED50 of 2.5 mg/kg. Further, the minimal effective dose in assay [2] turned out to be 1.56 mg/kg.

Turning to `O=C1CN2C(=O)C(c3ccccc3)c3cc(Cl)cc(c32)N1` (centres unmarked) [6-phenyl-8-chloro-1H-pyrrolo[1,2,3-de]quinoxalin-2,5(3H,6H)-dione], the “Inhibition at 50 mg/kg dose” value in assay [1] was 50%. For the same compound, the minimal effective dose in assay [2] was found to be 100 mg/kg.

`COc1cc2c3c(c1)C(c1ccccc1)C(=O)N3CC(=O)N2` (centres unmarked) [6-phenyl-8-methoxy-1H-pyrrolo[1,2,3-de]quinoxalin-2,5(3H,6H)-dione] displayed an ED50 in assay [1] of 45 mg/kg. The minimal effective dose in assay [2] was 6.25 mg/kg.

With `Cc1cc2c3c(c1)C(c1ccccc1)C(=O)N3CC(=O)N2` (centres unmarked) [6-phenyl-8-methyl-1H-pyrrolo[1,2,3-de]quinoxalin-2,5(3H,6H)-dione], the “Inhibition at 50 mg/kg dose” value in assay [1] is recorded as 51%. The minimal effective dose in assay [2] came to 3.12 mg/kg.
